Source: US20020165283A1, “Preservative blends containing quaternary ammonium compounds” (LONZA INC., priority 2001, published 2002)

System: S. aureus, P. aeruginosa, and E. coli
Assay: Mixed bacterial challenge of preserved anionic protein shampoo samples (plate counts)
Format: cell-based
Protocol: Each anionic shampoo sample in Table 1 below was tested as follows. A standardized mixed bacterial solution was prepared according to the following procedure. 3 agar stabs of S. aureus (ATCC#6538), P. aeruginosa (ATCC#9027), and E. coli (ATCC #8739) were separately incubated at about 35° C. for about 24 hours. Each stab was then washed with 3 mL of sterile 0.85% saline solution. The washes of the 3 stabs were pooled together to form an organism mixture. The absorbance of the organism mixture at 530 nm was adjusted to about 1.00 by adding saline. The spectrometer was calibrated with a saline blank. A 5 mL aliquot of the organism mixture was mixed together to produce the standardized mixed bacterial solution. Then, 40 g of each shampoo sample was inoculated with 0.2 mL of the standardized mixed bacterial solution and mixed. 1 g of the mixture was added to a sterile 20×150 mm screw cap test tube. 9 mL of sterile D/E neutralizer broth was added to the test tube and mixed to form a 10^−1 dilution,. Serial dilutions were prepared through to a 10^−6 dilution with phosphate buffered water. The serial dilutions were plated onto Tryptic Soy Agar and incubated for 2 days at about 35° C. Bacteria counts were performed after 0 and 14 days.
The anionic protein shampoo composition was comprised of 35% by weight of sodium lauryl ether sulfate; 25% by weight of triethanolamine lauryl sulfate; 3% by weight coconut diethanolamide (cocamide DEA); 1% by weight of hydrolyzed collagen, available as Polypro 5000™ from Hormel Foods of Austin, Minn.; and 36% by weight of deionized water.
The sodium dehydroacetate monohydrate, sodium salicylate, and Hyamine® 1622 shampoo samples were prepared by mixing the appropriate amounts of the preservatives and the aforementioned anionic protein shampoo composition and heating the mixture to about 50° C. for about 15 minutes.
(§1) The procedure described in Example 1 was repeated with the anionic shampoos in Table 3 below. The bacterial counts were performed after 0 and 7 days. The dehydroacetic acid (available from Lonza Inc. of Fair Lawn, N.J.) and Hyamine® 1622 shampoo samples were prepared by mixing the appropriate amounts of the preservatives and the anionic protein shampoo composition and heating the mixture to about 50° C. for about 15 minutes.
as §1, with “5” for “3”, “salicylic” for “bacterial counts were performed after 0 and 7 days. The dehydroacetic”, “Spectrum Chemical” for “Lonza Inc.”, “New Brunswick,” for “Fair Lawn,”, “for” for “for about”

[1] = Table 5, 0.2% of preservative alone
[2] = Table 1, 0.5% by weight of preservative alone
[3] = Table 1, 1.0% by weight of preservative alone

With O=C(O)c1ccccc1O [Salicylic Acid, salicylic acid] the “S. aureus, P. aeruginosa, and E. coli (cfu/g) Day 0” value [1] was 3.1 × 10^6 cfu/g and the “S. aureus, P. aeruginosa, and E. coli (cfu/g) Day 14” value [1] was 6.5 × 10^6 cfu/g.

With CC(=O)C1C(=O)C=C(C)OC1=O (centres unmarked) [Dehydroacetic Acid, dehydroacetic acid] the “S. aureus, P. aeruginosa, and E. coli (cfu/g) Day 0” value (Table 3, 0.2% of preservative alone) was 2.5 × 10^6 cfu/g and the “S. aureus, P. aeruginosa, and E. Coli (cfu/g) Day 7” value (Table 3, 0.2% of preservative alone, Day 7) was 4.4 × 10^4 cfu/g.

CC(=O)c1c([O-])cc(C)oc1=O.O.[Na+] [Sodium Dehydroacetate Monohydrate, Sodium dehydroacetate monohydrate] was tested, and the “S. aureus, P. aeruginosa, and E. coli (cfu/g) Day 0” value [2] was 3.0 × 10^6 cfu/g and the “S. aureus, P. aeruginosa, and E. coli (cfu/g) Day 14” value [2] was 4.0 × 10^3 cfu/g.

For O=C([O-])c1ccccc1O.[Na+] [Sodium Salicylate, Sodium salicylate], the “S. aureus, P. aeruginosa, and E. coli (cfu/g) Day 0” value [3] was 3.0 × 10^6 cfu/g and the “S. aureus, P. aeruginosa, and E. coli (cfu/g) Day 14” value [3] was 5.0 × 10^2 cfu/g.
